From patent US20260053932A1, “COMPOUNDS AND METHODS FOR THE TARGETED DEGRADATION OF ANDROGEN RECEPTOR AND ASSOCIATED METHODS OF USE” (Arvinas Operations, Inc., priority 2020, published 2026)

These compounds were tested on androgen receptor (AR) in LNCaP and/or VCaP cells (assay: Androgen Receptor ELISA assay (AR degradation)). Conditions: LNCaP and/or VCaP cells; 5 hours incubation; media with R1881; read-out: DC50 Code* (degradation of AR ELISA).
Type: cell-based
Summary of the method: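 VCaP cells grown ≥3 days, then treated 5 h with compound in media containing 1 nM R1881 (10× stock). Cells lysed and AR quantified by sandwich ELISA (mouse AR detection Ab, HRP anti-mouse, TMB). DC50 and Dmax derived from AR degradation.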

| SMILES | DC50 |
| --- | --- |
| N#Cc1ccc(O[C@H]2CC[C@H](NC(=O)c3cnc(N4CCC(CN(CC5COC5)[C@H]5C[C@H](Oc6ccc7c(c6)C(=O)N(C6CCC(=O)NC6=O)C7=O)C5)CC4)cn3)CC2)cc1Cl (some centres unmarked) [Compound 53, N-((1r,4r)-4-(3-chloro-4-cyanophenoxy)cyclohexyl)-5-(4-((((1r,3r)-3-((2-(2,6-dioxopiperidin-3-yl)-1,3-dioxoisoindolin-5-yl)oxy)cyclobutyl) (oxetan-3-ylmethyl)amino)methyl)piperidin-1-yl)pyrazine-2-carboxamide] | < 1 nM |
| CC(C)N(CC1CCN(c2ncc(C(=O)N[C@H]3CC[C@H](Oc4ccc(C#N)c(Cl)c4)CC3)cn2)CC1)[C@H]1C[C@H](Oc2ccc3c(c2)C(=O)N(C2CCC(=O)NC2=O)C3)C1 (some centres unmarked) [Compound 60, N-((1r,4r)-4-(3-chloro-4-cyanophenoxy)cyclohexyl)-2-(4-((((1r,3r)-3-((2-(2,6-dioxopiperidin-3-yl)-3-oxoisoindolin-5-yl)oxy)cyclobutyl) (isopropyl)amino)methyl)piperidin-1-yl)pyrimidine-5-carboxamide] | < 1 nM |
| COc1cc(O[C@H]2C[C@H](N(CC3CCN(c4ncc(C(=O)N[C@@H]5CC[C@@H](Oc6cc(C)c(C#N)c(C)c6)C5)cn4)CC3)C(C)C)C2)cc2c1C(=O)N(C1CCC(=O)NC1=O)C2=O (stereo partly drawn) [Compound 8, N-((1R,3R)-3-(4-cyano-3,5-dimethylphenoxy)cyclopentyl)-2-(4-((((1r,3R)-3-((2-(2,6-dioxopiperidin-3-yl)-7-methoxy-1,3-dioxoisoindolin-5-yl)oxy)cyclobutyl) (isopropyl)amino)methyl)piperidin-1-yl)pyrimidine-5-carboxamide] | > 100 nM |
| COCCN(CC1CCN(c2cnc(C(=O)N[C@H]3CC[C@H](Oc4ccc(C#N)c(Cl)c4)CC3)cn2)CC1)[C@H]1C[C@H](Oc2ccc3c(c2)C(=O)N(C2CCC(=O)NC2=O)C3)C1 (some centres unmarked) [Compound 24, N-((1r,4r)-4-(3-chloro-4-cyanophenoxy)cyclohexyl)-5-(4-((((1r,3r)-3-((2-(2,6-dioxopiperidin-3-yl)-3-oxoisoindolin-5-yl)oxy)cyclobutyl)(2-methoxyethyl)amino)methyl)piperidin-1-yl)pyrazine-2-carboxamide] | < 1 nM |
| COc1cc(O[C@H]2C[C@H](N(CC3CCN(c4ncc(C(=O)N[C@@H]5CC[C@H](Oc6cc(C)c(C#N)c(C)c6)C5)cn4)CC3)C(C)C)C2)cc2c1C(=O)N(C1CCC(=O)NC1=O)C2=O (stereo partly drawn) [Compound 4, N-((1R,3S)-3-(4-cyano-3,5-dimethylphenoxy)cyclopentyl)-2-(4-((((1r,3R)-3-((2-(2,6-dioxopiperidin-3-yl)-7-methoxy-1,3-dioxoisoindolin-5-yl)oxy)cyclobutyl) (isopropyl)amino)methyl)piperidin-1-yl)pyrimidine-5-carboxamide] | > 100 nM |
| N#Cc1ccc(O[C@H]2CC[C@H](NC(=O)c3cnc(N4CCC(CN(C5COC5)[C@H]5C[C@H](Oc6ccc7c(c6)C(=O)N(C6CCC(=O)NC6=O)C7)C5)CC4)cn3)CC2)cc1Cl (some centres unmarked) [Compound 15, N-((1r,4r)-4-(3-chloro-4-cyanophenoxy)cyclohexyl)-5-(4-((((1r,3r)-3-((2-(2,6-dioxopiperidin-3-yl)-3-oxoisoindolin-5-yl)oxy)cyclobutyl) (oxetan-3-yl)amino)methyl)piperidin-1-yl)pyrazine-2-carboxamide] | < 1 nM |

Second part, the compound after the results:

| DC50 | SMILES |
| --- | --- |
| < 1 nM | COc1cc(O[C@H]2C[C@H](N(CC3CCN(c4cnc(C(=O)N[C@H]5CC[C@H](Oc6ccc(C#N)c(Cl)c6)CC5)cn4)CC3)C(C)C)C2)cc2c1C(=O)N(C1CCC(=O)NC1=O)C2=O (some centres unmarked) [Compound 14, N-((1r,4r)-4-(3-chloro-4-cyanophenoxy)cyclohexyl)-5-(4-((((1r,3r)-3-((2-(2,6-dioxopiperidin-3-yl)-7-methoxy-1,3-dioxoisoindolin-5-yl)oxy)cyclobutyl) (isopropyl)amino)methyl)piperidin-1-yl)pyrazine-2-carboxamide] |
| < 1 nM | Cc1cc(O[C@H]2CC[C@H](NC(=O)c3cnc(N4CCC(CN(C(C)C)[C@H]5C[C@H](Oc6ccc7c(c6)C(=O)N(C6CCC(=O)NC6=O)C7=O)C5)CC4)cn3)CC2)cc(C)c1C#N (some centres unmarked) [Compound 25, N-((1r,4r)-4-(4-cyano-3,5-dimethylphenoxy)cyclohexyl)-5-(4-((((1r,3r)-3-((2-(2,6-dioxopiperidin-3-yl)-1,3-dioxoisoindolin-5-yl)oxy)cyclobutyl) (isopropyl)amino)methyl)piperidin-1-yl)pyrazine-2-carboxamide] |

Same assay, conditions: degradation of AR ELISA in LNCaP and/or VCaP cells; Table 2C; read-out: DC50 Code*

| SMILES | DC50 |
| --- | --- |
| CCN(CC1CCN(c2cnc(C(=O)N[C@H]3C(C)(C)[C@H](Oc4cc(C)c(C#N)c(C)c4)C3(C)C)cn2)CC1)[C@H]1C[C@H](Oc2ccc3c(c2)C(=O)N(C2CCC(=O)NC2=O)C3=O)C1 (some centres unmarked) [compound 206, N-((1r,3r)-3-(4-cyano-3,5-dimethylphenoxy)-2,2,4,4-tetramethylcyclobutyl)-5-(4-((((1r,3r)-3-((2-(2,6-dioxopiperidin-3-yl)-1,3-dioxoisoindolin-5-yl)oxy)cyclobutyl) (ethyl)amino)methyl)piperidin-1-yl)pyrazine-2-carboxamide] | < 1 nM |
| Cc1cc(O[C@H]2C(C)(C)[C@H](NC(=O)c3cnc(N4CC(CN[C@H]5C[C@H](Oc6ccc7c(c6)C(=O)N(C6CCC(=O)NC6=O)C7=O)C5)C4)cn3)C2(C)C)cc(C)c1C#N (some centres unmarked) [compound 118, N-((1r,3r)-3-(4-cyano-3,5-dimethylphenoxy)-2,2,4,4-tetramethylcyclobutyl)-5-(3-((((1r,3r)-3-((2-(2,6-dioxopiperidin-3-yl)-1,3-dioxoisoindolin-5-yl)oxy)cyclobutyl)amino)methyl)azetidin-1-yl)pyrazine-2-carboxamide] | < 1 nM |

Second part, the compound after the results:

| DC50 | SMILES |
| --- | --- |
| < 1 nM | COCCN(CC1CCN(c2cnc(C(=O)N[C@H]3C(C)(C)[C@H](Oc4ccc(C#N)c(OC)c4)C3(C)C)cn2)CC1)[C@H]1C[C@H](Oc2ccc3c(c2)C(=O)N(C2CCC(=O)NC2=O)C3=O)C1 (some centres unmarked) [compound 116, N-((1r,3r)-3-(4-cyano-3-methoxyphenoxy)-2,2,4,4-tetramethylcyclobutyl)-5-(4-((((1r,3r)-3-((2-(2,6-dioxopiperidin-3-yl)-1,3-dioxoisoindolin-5-yl)oxy)cyclobutyl)(2-methoxyethyl)amino)methyl)piperidin-1-yl)pyrazine-2-carboxamide] |
| < 1 nM | Cc1cc(O[C@H]2C(C)(C)[C@H](NC(=O)c3ccc(N4CCC(CN(C)[C@H]5C[C@H](Oc6ccc7c(c6)C(=O)N(C6CCC(=O)NC6=O)C7=O)C5)CC4)cc3)C2(C)C)cc(C)c1C#N (mixture of isomers) [compound 186, rac-N-((1r,3r)-3-(4-cyano-3,5-dimethylphenoxy)-2,2,4,4-tetramethylcyclobutyl)-4-(4-((((1r,3r)-3-((2-(2,6-dioxopiperidin-3-yl)-1,3-dioxoisoindolin-5-yl)oxy)cyclobutyl) (methyl)amino)methyl)piperidin-1-yl)benzamide] |
| < 1 nM | Cc1cc(O[C@H]2C(C)(C)[C@H](NC(=O)c3ccc(N4CCO[C@H](CN5CCN(c6ccc7c(c6)C(=O)N(C6CCC(=O)NC6=O)C7=O)CC5)C4)cc3)C2(C)C)cc(C)c1C#N (stereo partly drawn) [compound 167, N-((1r,3R)-3-(4-cyano-3,5-dimethylphenoxy)-2,2,4,4-tetramethylcyclobutyl)-4-((2R)-2-((4-(2-(2,6-dioxopiperidin-3-yl)-1,3-dioxoisoindolin-5-yl)piperazin-1-yl)methyl)morpholino) benzamide] |
| < 1 nM | Cc1cc(O[C@H]2C(C)(C)[C@H](NC(=O)c3ccc(N4CCC(CN(C)[C@H]5CC[C@H](Oc6ccc7c(c6)C(=O)N(C6CCC(=O)NC6=O)C7=O)C5)CC4)cc3)C2(C)C)cc(C)c1C#N (stereo partly drawn) [compound 154, N-((1r,3S)-3-(4-cyano-3,5-dimethylphenoxy)-2,2,4,4-tetramethylcyclobutyl)-4-(4-((((1S,3S)-3-((2-(2,6-dioxopiperidin-3-yl)-1,3-dioxoisoindolin-5-yl)oxy)cyclopentyl) (methyl)amino)methyl)piperidin-1-yl)benzamide] |
| < 1 nM | Cc1cc(O[C@H]2C(C)(C)[C@H](NC(=O)c3ccc(N4CCC(CN5CCCC[C@H]5COc5ccc6c(c5)C(=O)N(C5CCC(=O)NC5=O)C6=O)CC4)cc3)C2(C)C)cc(C)c1C#N (stereo partly drawn) [compound 162, N-((1r,3S)-3-(4-cyano-3,5-dimethylphenoxy)-2,2,4,4-tetramethylcyclobutyl)-4-(4-(((2S)-2-(((2-(2,6-dioxopiperidin-3-yl)-1,3-dioxoisoindolin-5-yl)oxy)methyl)piperidin-1-yl)methyl)piperidin-1-yl)benzamide] |
| < 1 nM | Cc1cc(O[C@H]2C(C)(C)[C@H](NC(=O)c3cnc(N4CC5(CC(CN(C(C)C)[C@H]6C[C@H](Oc7ccc8c(c7)C(=O)N(C7CCC(=O)NC7=O)C8=O)C6)C5)C4)cn3)C2(C)C)cc(C)c1C#N (some centres unmarked) [compound 175, N-((1r,3r)-3-(4-cyano-3,5-dimethylphenoxy)-2,2,4,4-tetramethylcyclobutyl)-5-(6-((((1r,3r)-3-((2-(2,6-dioxopiperidin-3-yl)-1,3-dioxoisoindolin-5-yl)oxy)cyclobutyl) (isopropyl)amino)methyl)-2-azaspiro[3.3]heptan-2-yl)pyrazine-2-carboxamide] |
| < 1 nM | Cc1cc(O[C@H]2C(C)(C)[C@H](NC(=O)c3ccc(N4CCC(CN(C)[C@H]5CC[C@@H](Oc6ccc7c(c6)C(=O)N(C6CCC(=O)NC6=O)C7=O)C5)CC4)cc3)C2(C)C)cc(C)c1C#N (stereo partly drawn) [compound 152, N-((1r,3S)-3-(4-cyano-3,5-dimethylphenoxy)-2,2,4,4-tetramethylcyclobutyl)-4-(4-((((1S,3R)-3-((2-(2,6-dioxopiperidin-3-yl)-1,3-dioxoisoindolin-5-yl)oxy)cyclopentyl) (methyl)amino)methyl)piperidin-1-yl)benzamide] |
